Test results from ChEMBL document CHEMBL4145534, “Computer-aided insights into receptor-ligand interaction for novel 5-arylhydantoin derivatives as serotonin 5-HT7 receptor agents with antidepressant activity” (Eur J Med Chem, 2018).

Legend:
Assay type in all cases: functional
[1] = system: Mus musculus; experiment: Antidepressant like activity in Swiss albino mouse assessed as immobility time at 10 mg/kg, ip administered 30 mins prior to test and measured last 4 mins of 6 mins test by forced swimming test (reference value: 162.71 +/- 6.8 secs)
[2] = system: Mus musculus; experiment: Antidepressant like activity in Swiss albino mouse assessed as immobility time at 20 mg/kg, ip administered 30 mins prior to test and measured last 4 mins of 6 mins test by forced swimming test (reference value: 162.71 +/- 6.8 secs)
[3] = system: Mus musculus; experiment: Antidepressant like activity in Swiss albino mouse assessed as immobility time at 5 mg/kg, ip administered 30 mins prior to test and measured last 4 mins of 6 mins test by forced swimming test (reference value: 162.71 +/- 6.8 secs)

`CN(C)CCCN1c2ccccc2CCc2ccccc21` [IMIPRAMINE] showed a Time [1] of 119.63 s, a Time [2] of 77.81 s and a Time [3] of 170.42 s.
